Source: patent publication US20100004272A1, “Modulators of metabolism and the treatment of disorders related thereto” (ARENA PHARMACEUTICALS, INC., priority 2006, published 2010)

Legend:
RUP3 receptor [1] = molecular target: T1, RUP3 receptor (Homo sapiens, UniProt Q8TDV5); assay: RUP3 dose response in melanophores (human RUP3); assay type: cell-based
T1 construct: expressed in transfected cells; host or cells: melanophores (as per Potenza and Lerner 1992), electroporated
T1 sequence (Q8TDV5 1-335): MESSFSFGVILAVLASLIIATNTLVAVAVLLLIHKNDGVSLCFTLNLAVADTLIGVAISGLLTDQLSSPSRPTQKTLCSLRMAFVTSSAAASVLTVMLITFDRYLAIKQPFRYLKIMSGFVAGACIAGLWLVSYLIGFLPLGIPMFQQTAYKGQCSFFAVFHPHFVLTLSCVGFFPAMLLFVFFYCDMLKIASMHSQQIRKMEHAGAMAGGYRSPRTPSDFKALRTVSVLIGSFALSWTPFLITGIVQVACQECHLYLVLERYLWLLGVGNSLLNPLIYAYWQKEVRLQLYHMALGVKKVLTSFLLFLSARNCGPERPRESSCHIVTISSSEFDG
Method: (§1) Melanophores are maintained in culture as reported by Potenza, M. N. and Lerner, M. R., in Pigment Cell Research, Vol. 5, 372-378, 1992 and transfected with the RUP3 expression vector (pCMV) using electroporation. Following electroporation, the transfected cells are plated into 96 well plates for the assay. The cells are then allowed to grow for 48 hours in order to both recover from the electroporation procedure and attain maximal receptor expression levels. On the assay day, the growth medium on the cells is replaced with serum-free buffer containing 10 nM melatonin. The melatonin acts via an endogenous Gi-coupled GPCR in the melanophores to lower intracellular cAMP levels. In response to lowered cAMP levels, the melanophores translocate their pigment to the center of the cell. The net effect of this is a significant decrease in the absorbance reading of the cell monolayer in the well, measured at […]. After a 1-hour incubation in melatonin, the cells become completely pigment-aggregated. At this point a baseline absorbance reading is collected. Serial dilutions of test compounds are then added to the plate and compounds that stimulate RUP3 produce increases in intracellular cAMP levels. […] The measured increase in absorbance compared to the baseline reading allows one to quantitate the degree of receptor stimulation and plot a dose-response curve.

Male Sprague Dawley rats = assay: Oral glucose tolerance test (oGTT) in rats; assay type: in vivo, rat; conditions: fasted male Sprague Dawley rats, p.o. 30 min before dextrose 3 g/kg, doses 0.3, 3 or 30 mg/kg (dose of this value not stated), mean of six animals
Method: General Procedure—Oral Glucose tolerance test (oGTT)
Male Sprague Dawley rats (Harlan, San Diego, Calif.) weighing approximately 350-375 g were fasted for 16 hours and randomly grouped (n=6) to receive a RUP3 agonist at 0.3, 3 or 30 mg/kg. Compounds were delivered orally via a gavage needle (p.o., volume 2 mL/kg). At time 0, levels of blood glucose were assessed using a glucometer (Accu-Chek Advantage, Roche Diagnostics), and rats were administered either vehicle (20% hydroxypropyl-beta-cyclodextrin) or test compound. Thirty minutes after administration of test compound, levels of blood glucose were again assessed, and rats were administered dextrose orally at a dose of 3 g/kg. Blood glucose measurements were then taken 30 min, 60 min, and 120 min after this time.

RUP3 receptor [2] = molecular target: T2, RUP3 receptor (Mus musculus, UniProt Q7TQP3); assay: RUP3 dose response in melanophores (mouse RUP3); assay type: cell-based
T2 construct: expressed in transfected cells; host or cells: melanophores, electroporated
T2 sequence (Q7TQP3 1-335): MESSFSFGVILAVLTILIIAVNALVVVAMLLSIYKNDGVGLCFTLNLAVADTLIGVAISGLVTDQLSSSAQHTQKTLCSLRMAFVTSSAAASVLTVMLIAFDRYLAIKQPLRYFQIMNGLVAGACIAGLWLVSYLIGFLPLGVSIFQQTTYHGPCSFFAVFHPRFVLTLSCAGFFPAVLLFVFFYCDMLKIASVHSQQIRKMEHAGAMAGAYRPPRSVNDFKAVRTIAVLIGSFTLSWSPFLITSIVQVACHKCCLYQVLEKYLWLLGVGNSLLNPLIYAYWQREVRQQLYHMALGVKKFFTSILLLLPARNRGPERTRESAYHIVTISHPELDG
Method: as §1

RUP3 receptor [3] = molecular target: T3, RUP3 receptor (Rattus norvegicus, UniProt Q7TQN8); assay: RUP3 dose response in melanophores (rat RUP3); assay type: cell-based
T3 construct: expressed in transfected cells; host or cells: melanophores, electroporated
T3 sequence (Q7TQN8 1-468): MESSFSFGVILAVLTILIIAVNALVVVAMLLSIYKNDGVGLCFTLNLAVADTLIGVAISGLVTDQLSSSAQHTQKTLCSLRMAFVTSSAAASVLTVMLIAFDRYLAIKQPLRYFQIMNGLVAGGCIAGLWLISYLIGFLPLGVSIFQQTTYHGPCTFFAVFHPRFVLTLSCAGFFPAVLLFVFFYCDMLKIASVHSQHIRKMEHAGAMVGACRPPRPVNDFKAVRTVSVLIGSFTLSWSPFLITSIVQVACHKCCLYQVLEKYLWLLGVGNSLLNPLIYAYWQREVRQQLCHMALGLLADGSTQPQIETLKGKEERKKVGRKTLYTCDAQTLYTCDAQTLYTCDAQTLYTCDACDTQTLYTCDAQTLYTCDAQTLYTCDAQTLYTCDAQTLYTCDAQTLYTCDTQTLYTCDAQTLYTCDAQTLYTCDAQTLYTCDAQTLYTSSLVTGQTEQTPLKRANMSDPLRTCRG
Method: as §1

[4] = Rat dose-range PK study (dose escalation pharmacokinetics); assay type: in vivo; conditions: PO 3, 30, 300 mg/Kg, FIG. 1
Method: Male SD rats (250-300 g) were purchased from Charles River Laboratory; upon receipt, animals were placed under light-dark cycle (6:30 am-6:30 pm lights on) They were allowed ad libitum access to water and 4 pieces of food daily (Purina Meals Rodent Diet, Product Number 5001).
Compound formulations were prepared as following: The IV injection formulation was prepared in 20% hydroxypropyl-beta-cyclodextrin with concentration of 0.667 mg/mL. The PO formulations were prepared in 0.5% hydroxypropyl methylcellulose with concentrations of […]. The dosing volume for IV injection was 3 mL/Kg and for PO administration was 10 mL/Kg. Four rats were used for each dose group. […]
Plasma samples were prepared as follows. […] Calibration standards were typically prepared in the range of 2.0 ng/mL to 10 μg/mL with linear regression for quantitation. […]
Results were calculated by noncompartmental analysis using WinNonlin Pro version 3.1 based on plasma concentration-time profiles for individual animals. Plasma levels were determined as described above and the oral and intravenous area under the concentration vs. time curve (AUC was calculated using the linear trapezoidal rule up to the last measurable concentration and was then extrapolated to infinity) were compared to determine the % bioavailability (% oF) by the following formula: Dose (IV)*AUC (oral)/Dose (oral)*AUC (IV). […]

RUP3 receptor [5] = molecular target: T4, RUP3 receptor (Canis lupus familiaris, UniProt A0A8I3QZL6); assay: RUP3 dose response in melanophores (dog RUP3); assay type: cell-based
T4 sequence (A0A8I3QZL6 1-335): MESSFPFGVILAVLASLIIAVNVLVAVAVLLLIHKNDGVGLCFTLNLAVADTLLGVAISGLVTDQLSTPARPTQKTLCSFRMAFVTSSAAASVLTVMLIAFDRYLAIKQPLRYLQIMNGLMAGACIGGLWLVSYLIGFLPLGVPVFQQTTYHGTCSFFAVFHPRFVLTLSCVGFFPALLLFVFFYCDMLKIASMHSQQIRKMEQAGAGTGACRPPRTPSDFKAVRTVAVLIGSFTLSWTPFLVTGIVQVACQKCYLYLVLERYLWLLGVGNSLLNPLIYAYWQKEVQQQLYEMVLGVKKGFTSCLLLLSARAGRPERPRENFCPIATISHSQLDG
Method: as §1

EC50 (RUP3 receptor [1]): 2 nM
EC50 (RUP3 receptor [2]): 43 nM
EC50 (RUP3 receptor [3]): 42 nM
EC50 (RUP3 receptor [5]): 8 nM
Compound: Cc1nc(S(C)(=O)=O)ccc1Nc1ncnc(OC2CCN(C(=O)OC(C)C)CC2)c1C [Formula (I), 4-[6-(6-methanesulfonyl-2-methyl-pyridin-3-ylamino)-5-methyl-pyrimidin-4-yloxy]-piperidine-1-carboxylic acid isopropyl ester]
mean percent inhibition of glucose excursion (Male Sprague Dawley rats): 38%
dose escalation pharmacokinetics (AUC vs. dose linearity) [4]: essentially linear dose escalation pharmacokinetics
